The values that follow come from patent publication US7470724B2, “Phosphonate compounds having immuno-modulatory activity” (Gilead Sciences, Inc., priority 2003, dated 2008).

Structures are written as SMILES.

A short description of the data set: Pro-drug cleavage by human PBMC extracts. It is filed as in vitro ADME. The conditions noted are these: cleavage rate per μg protein; 30 μM substrate, pH 6.5, 37° C., 10-120 minutes; disappearance of pro-drug by HPLC at 260 nm. The method, then:
Fresh human PBMCs were obtained from patients undergoing leukophoresis; cells were shipped in plasma and processed within 26 h of draw. Purification was achieved using the Ficoll-Paque method: PBMC cells were harvested by centrifugation at 1200×g for 5 minutes and washed three times by re-suspension in RBC lysis buffer (155 mM NH4Cl, 0.1 mM EDTA, 10 mM KHCO3). Washed cells were suspended in lysis buffer (0.2×10^9 cells in 1 ml of 10 mM Tris, pH 7.4, 150 mM NaCl, 20 mM CaCl2, 1 mM DTT and 1% NP40) and incubated on ice for 20 minutes. The PBMC crude extract was centrifuged at 1000×g for 30 min to remove unlysed cells and the supernatant at 100,000×g for 1 h. The 100,000×g supernatant (PBMC Extract: P0) was harvested, snap frozen in liquid nitrogen and stored at −70° C.
Reaction mixtures contained 25 mM MesNa (pH 6.5), 100 mM NaCl, 1 mM DTT, 0.1% NP-40, 30 μM substrate, and varying amounts of enzyme in a final volume of 100 μl. The enzymatic reaction is performed at 37° C. for 10-120 minutes and stopped at 3-4 individual time points by adding 180 μl of ice cold methanol. Samples are incubated @−20° C. for 30 min, and centrifuged 13,000 RPM for 30 min (@ 4° C.). The supernatant is transferred to a 96 well plate and evaporated under vacuum using a speedvac. The precipitate is dissolved in 100 μl of 20 mM CH3COONH4+5% AcCN. The disappearance of pro-drug is measured by HPLC, monitoring at 260 nm. The specific activity of the PBMC Extract against the prodrugs tested is defined as: v (cleavage rate)/μg protein=pmoles/min/μg.
As for `CCOC(=O)C(C)NP(=O)(/C=C/c1ccccc1Cn1cnc2c(=O)[nH]c(N)nc21)N[C@@H](C)C(=O)OCC` (stereo partly shown) [Example 133-2], the “Human PBMC extract specific activity” value is 0.38 pmol/min/µg. The same measure for `CCOC(=O)C(C)NP(=O)(CCC(C)(C)CCn1cnc2c(=O)[nH]c(N)nc21)Oc1ccccc1` (stereo not shown) [Example 130-1]: 3.48 pmol/min/µg.

`CCOC(=O)C(C)NP(=O)(/C=C/c1ccccc1Cn1cnc2c(=O)[nH]c(N)nc21)Oc1ccccc1` (stereo not shown) [Example 133-1]: the “Human PBMC extract specific activity” value was found to be 4.9 pmol/min/µg. Under `CCOC(=O)C(C)NP(=O)(CCC(C)(C)CCn1cnc2c(=O)[nH]c(N)nc21)N[C@@H](C)C(=O)OCC` (stereo partly shown) [Example 130-2] stands 0.65 pmol/min/µg.
